Results reported in US6432381B1, “Methods for targeting drug delivery to the upper and/or lower gastrointestinal tract” (Elan Pharma International Limited, priority 1994, dated 2002).
Each block holds one molecule with its values, some of them ahead of it.

Key:
[1] = Table 3
[2] = tested on: GI tract; assay: X-ray diagnostic imaging of mucoadhesion in the GI tract (ferrets); assay type: in vivo; conditions: suspension milled in Pluronic F127
Description: (§1) The amount and site of the mucoadhesion was determined by x-ray diagnostic imaging. The imaging was performed in anesthetized rats with the exception of G05-R1 samples which were imaged in fasted and anesthetized ferrets. Images were obtained using the Siemens C-Arm Siremobil 3U x-ray unit. The imaging dose was 10 ml/kg administered via gastric intubation to the anesthetized animal. X-rays were taken at 15, 30, 45 and 60 minutes and at 1, 2, 5 and 24 hours post-dose. A 10-15 ml volume of air was introduced to the animal at 30 minutes to produce a double contrast image.
(§2) Images were evaluated by the criteria of: coating, homogeneity, rate of gastric emptying and the total transit time. These are considered to be a measure of the stability of the suspension during transit down the GI tract and the ability of the formulation to adhere to the lower gastrointestinal tract. Suspensions were rated excellent when there was a uniform coating with transradiation of long intestinal segments, sufficient radiodensity to delineate anatomical structure, rapid emptying and transit, and stability and homogeneity during GI transit. A plus sign (+) was assigned when imaging in the lower GI was exceptional, a minus sign (−) as given when it was not. […]

[3] = tested on: GI tract; assay: X-ray diagnostic imaging of mucoadhesion in the GI tract (rats); assay type: in vivo
Description: as §1, §2

[4] = Particle size determination; assay type: physicochemical; conditions: wet grinding
Description: As used herein, particle size is determined on the basis of weight average particle size as measured by conventional particle size measuring techniques well known to those skilled in the art, such as sedimentation field flow fractionation, photon correlation spectroscopy, or disk centrifugation. […] By “effective particle size” is meant that at least 90% of the particles in the sample measured by the above-noted weight sizing techniques have a particle size less than the stated size.
The particle size was determined during the milling process and again immediately before the suspensions were administered. Particle size was determined on the Coulter Model N4MD Submicron Particle Analyzer (Coulter Corp.; Miami Lakes, Fla.); and using the Microtrac Ultrafine Particle Analyzer (Leeds and Northrup Co.; St. Petersburg, Fla.).

SMILES: CCOC(=O)c1c(I)c(NC(C)=O)c(I)c(NC(C)=O)c1I [WIN 8883, ethyl 3,5-bis(acetylamino)-2,4,6-triodobenzoate]
Aqueous Solubility [1]: <5 µg/mL | Upper and lower GI imaging rating [2]: excellent | Upper and lower GI imaging rating ([3]; suspension milled in/stabilized with Pluronic F127, rats): excellent | GI imaging rating ([3]; suspension stabilized with F88, for the upper GI only): excellent

SMILES: C[C@@H]1[C@H](O)[C@@H](C)/C=C/C=C/C=C/C=C/C=C/C=C/C=C/[C@H](O[C@@H]2O[C@H](C)[C@@H](O)[C@H](N)[C@@H]2O)C[C@@H]2O[C@](O)(C[C@@H](O)C[C@@H](O)[C@H](O)CC[C@@H](O)C[C@@H](O)CC(=O)O[C@H]1C)C[C@H](O)[C@H]2C(=O)O [amphotericin B]
Particle Size Weight Average ([4]; amphotericin B 5%, poloxamer F-68 2.5%): 426 nm | Particle Size Weight Average ([4]; amphotericin B 5%, poloxamer F-127 2.5%): 510 nm

SMILES: CCC(=O)OCC(=O)[C@@]1(OC(=O)CC)[C@@H](C)C[C@H]2[C@@H]3CCC4=CC(=O)C=C[C@]4(C)[C@@]3(Cl)[C@@H](O)C[C@@]21C [beclomethasone dipropionate]
Particle Size Weight Average ([4]; beclomethasone dipropionate 5%, poloxamer F-68 2.5%): 221 nm | Particle Size Weight Average ([4]; beclomethasone dipropionate 5%, poloxamer F-127 2.5%): 244 nm

SMILES: CS(=O)(=O)OCCCCOS(C)(=O)=O [busulfan]
Particle Size Weight Average ([4]; busulfan 2%, poloxamer F-108 0.5%): 387 nm

SMILES: CC[C@@]1(O)C(=O)OCc2c1cc1n(c2=O)Cc2cc3ccccc3nc2-1 [camptothecin]
Particle Size Weight Average ([4]; camptothecin 2%, poloxamer F-68 2%): 107 nm | Particle Size Weight Average ([4]; camptothecin 2%, poloxamer F-108 1%): 111 nm

SMILES: COC1=CC(=O)C[C@@H](C)[C@]12Oc1c(Cl)c(OC)cc(OC)c1C2=O [griseofulvin]
Particle Size Weight Average ([4]; griseofulvin 5%, poloxamer F-68 2.5%): 617 nm | Particle Size Weight Average ([4]; griseofulvin 5%, poloxamer F-127 2.5%): 617 nm

Further lines, results first:

Particle Size Weight Average ([4]; ibuprofen 3%, poloxamer F-68 2.0%): 253 nm
SMILES: CC(C)Cc1ccc(C(C)C(=O)O)cc1 (centres unmarked) [ibuprofen]

Particle Size Weight Average ([4]; indomethacin 5%, poloxamer F-68 1%): 228 nm | Particle Size Weight Average ([4]; indomethacin 5%, poloxamer F-68 2.5%): 193 nm
SMILES: COc1ccc2c(c1)c(CC(=O)O)c(C)n2C(=O)c1ccc(Cl)cc1 [indomethacin]

Particle Size Weight Average ([4]; methotrexate 5%, poloxamer F-68 2.5%): 196 nm | Particle Size Weight Average ([4]; methotrexate 5%, poloxamer F-127 2.5%): 248 nm
SMILES: CN(Cc1cnc2nc(N)nc(N)c2n1)c1ccc(C(=O)N[C@@H](CCC(=O)O)C(=O)O)cc1 [methotrexate]

Particle Size Weight Average ([4]; naproxen 5%, poloxamer F-68 3.0%): 270 nm
SMILES: COc1ccc2cc([C@H](C)C(=O)O)ccc2c1 [naproxen]

Particle Size Weight Average ([4]; phenytoin 5%, poloxamer F-68 2.5%): 385 nm | Particle Size Weight Average ([4]; phenytoin 5%, poloxamer F-108 2.5%): 385 nm | Particle Size Weight Average ([4]; phenytoin 5%, poloxamer F-127 2.5%): 431 nm
SMILES: O=C1NC(=O)C(c2ccccc2)(c2ccccc2)N1 [phenytoin]

Particle Size Weight Average ([4]; piposulfan 2%, poloxamer F-108 0.5%): 339 nm
SMILES: CS(=O)(=O)OCCC(=O)N1CCN(C(=O)CCOS(C)(=O)=O)CC1 [piposulfan]
